Laboratory results as given in paper PMC11724075, “Small-molecule-induced ERBB4 activation to treat heart failure” (Nature Communications, 2025).
Values joined by “and” are separate entries in the source; they are usually repeats but may differ in a detail not shown here. Equal values may be shown once.

What was measured:
[1] = test system: mouse model of AngII-induced myocardial fibrosis; assay: AngII-induced myocardial fibrosis mouse model, 4 weeks, echocardiography, wild-type mice; format: in vivo
Protocol: Four weeks after implantation, cardiac ultrasound was performed, mice were euthanized, and hearts were collected. A similar set-up was used for the 1-week study (Alzet, model 1007D) in male mice (n = 9-10 mice in every group).
Echocardiography was performed using the Vevo F2-LAZRX (FUJIFILM VisualSonics) and UHF57x probe. Mice were anesthetized with 1.5% isoflurane (Alvira, BE-V512222). Parasternal long-axis B-mode images and M-mode images were obtained and analyzed using VevoLAB software (FUJIFILM VisualSonics, Version 5.7.1). For the AngII experiments, measurements were obtained through analysis of the short-axis M-mode. For the MI experiments, measurements were obtained through analysis of the parasternal long-axis B-mode, of which the area and end-volume of the left ventricular cavity in diastole and systole were determined by tracing the endocardial border. Acquisitions, measurements and analyses were performed blinded.
Supplementary Table 2. Echocardiographic parameters. Echocardiographic parameters obtained through the analysis of the M-mode short-axis views. (a) Male and (b) female wild-type mice treated […]
mice in EF-1 group). (c) Male wild-type mice treated with AngII and NA-1 (n=5 male mice in Ctrl and AngII/Veh group, n=4 male mice in AngII/NA -1 group). (d) Comparison between wild-type and Erbb4-null mice (n=10 male and female wild -type mice and n=6 male and female Erbb4-null mice). (e) Male […]
Echocardiographic parameters obtained through left ventricular trace analysis of the parasternal long-axis obtained in B-mode in female wild-type mice that underwent a sham or MI operation: mice with […]
in MI/EF-1 group). (g) Echocardiographic parameters obtained through left ventricular trace analysis of the parasternal long-axis obtained in B-mode in male wild-type mice that underwent a sham or MI […]
male mice in MI/Veh group for T2 and T4). Echocardiographic parameters were measured weekly (indicated by ‘T’). All data are presented as mean (value of individual mice) ± SD, two-tailed unpaired […]
1 groups. Source data are provided as a Source Data file. AngII, angiotensin II; ANOVA, analysis of variance; Ctrl, control; DOX, doxorubicin; EF, ejection fraction; ERBB4, erythroblastic leukemia viral oncogene homolog 4; FS, fractional shortening; IVSd, interventricular septum thickness in diastole; IVSs, interventricular septum thickness in systole; LVIDd, left ventricular internal diameter in diastole; LVIDs, left ventricular internal diameter in systole; LVPWd, left ventricular posterior wall thickness in diastole; LVPWs, left ventricular posterior wall thickness in systole; MI, myocardial infarction; NA, non-activating pharmacophore-containing compound; SD, standard variation; Veh, vehicle.

[2] = test system: iAMs; assay: H2O2-induced cell death assay in iAMs (Toxilight), also with LY294002; conditions: H2O2 100 µM; for total cell death of iAMs (percentage of total dead cells): NA-1, 4 h, single replicates
Protocol: Subsequently, H2O2 (100 µM; Merck, H1009) was added and the cells were incubated for 4 h at 37 °C. All wells contained DMSO at a final concentration of 0.9%. […] After incubation at RT for 5 min, luminescence was measured using the Luminoskan Ascent.

[3] = test system: HCFs; assay: In vitro collagen expression: COL3A1 mRNA in HCFs stimulated with TGF-β1; format: cell-based, human; conditions: for COL3A1 mRNA expression (FC): NA-1, TGF-β1 10 ng/mL, 24 h, single replicates
Protocol: HCFs were seeded at a density of 1.5 ×10^5 cells/well in doxycycline-free medium in 12-well plates (Greiner Bio-One, 665180) and incubated overnight. […] Compounds were pre-incubated for 10 min before addition of TGF-β1.
RNA was extracted using Nucleospin RNA XS (Macherey-Nagel, 740902.50) according to the manufacturer’s instructions. For cDNA synthesis, total RNA was added to a mixture containing buffer with random hexamers and reverse transcriptase enzyme (TaqMan reverse transcription reagents, Applied biosystems, N8080234) after which samples were incubated for 10 min at 25 °C, 30 min at 48 °C, and 5 min at 95 °C. RT-qPCR was performed on QuantStudio 3 Real-time PCR system (Applied Biosystems) using Taqman Universal PCR Master Mix (Applied Biosystems, 4304437) and Taqman primers according to the manufacturer’s instructions. Settings were as follows: […] followed by 10 min at 95 °C, 40 cycles (45 cycles for ERBB4) of denaturation at 95 °C for 15 s, and 1 min at 60 °C. All reactions were run in duplicate, and all data were normalized against housekeeping genes glyceraldehyde-3-phosphate dehydrogenase (GAPDH), beta-actin (ACTB), or phosphoglycerate kinase 1 (PGK1). Expression levels were calculated using the comparative cycle method and expressed as fold change (FC) to appropriate controls. The following TaqMan primers were used (Thermo Fisher Scientific): GAPDH (Hs02758991_g1, Mm99999915_g1 and Rn01775763_g1), PGK1 (Hs99999906_m1), ID2 (Hs04187239_m1), BMPR1B (Hs01010965_m1), CACNA2D4 (Hs00297782_m1), DUSP2 (Hs00358879_m1), NR4A1 (Hs00374226_m1), SGK1 (Hs00178612_m1), COL1A1 (Mm00801666_g1), COL3A1 (Hs00943809_m1 and Mm00802305_g1), ERBB4 (Hs00955525_m1 and Rn00572447_m1), ACTB (Mm02619580_g1) and ANP (Mm01255747_g1).

[4] = Male wild-type mice, AngII/NA-1
[5] = male wild-type mice, AngII + compound 2 mg/kg/day, 4 weeks, mean ± SD

## Cc1sc2nc(SC(C)C(=O)NCc3ccc4c(c3)OCO4)n(-c3ccccc3)c(=O)c2c1C (centres unmarked) [NA-1]
[1]; [4]
  FS: 18.1 ± 5.1%
  IVSd: 1.0 ± 0.2 mm
  IVSs: 1.4 ± 0.2 mm
  LVIDd: 4.3 ± 0.7 mm
  LVIDs: 3.5 ± 0.7 mm
  LVPWd: 0.9 ± 0.1 mm
  LVPWs: 1.1 ± 0.3 mm
[1]; [5]
  FS: 18.1 ± 5.1%
  IVSd: 1.0 ± 0.2 mm
  IVSs: 1.4 ± 0.2 mm
  LVIDd: 4.3 ± 0.7 mm
  LVIDs: 3.5 ± 0.7 mm
  LVPWd: 0.9 ± 0.1 mm
  LVPWs: 1.1 ± 0.3 mm
[2]
  effect on cardiomyocyte survival (in words): did not have a significant effect on cardiomyocyte survival
[2]; 1e-6 M
  total cell death of iAMs (percentage of total dead cells): 60.0225 and 62.2886 and 68.0221
[2]; 4e-6 M
  total cell death of iAMs (percentage of total dead cells): 64.78 and 60.57 and 53.32 and 58.95
[2]; 8e-6 M
  total cell death of iAMs (percentage of total dead cells): 63.16 and 63.84 and 49.27 and 56.61
[2]; 1.6e-5 M
  total cell death of iAMs (percentage of total dead cells): 61.57 and 64.49 and 50.09 and 59.17
[2]; 3.2e-5 M
  total cell death of iAMs (percentage of total dead cells): 63.24 and 58.6 and 49.06 and 56.03
[3]; 4–32 µM
  effect on TGF-β1-induced COL3A1 expression in HCFs (in words): did not affect COL3A1 expression
[3]; 1e-6 M
  COL3A1 mRNA expression (FC): 1
[3]; 4e-6 M
  COL3A1 mRNA expression (FC): 0.6694 and 0.8324 and 0.8909
[3]; 8e-6 M
  COL3A1 mRNA expression (FC): 0.9443 and 0.7317 and 0.6882
[3]; 1.6e-5 M
  COL3A1 mRNA expression (FC): 0.7688 and 0.6597 and 0.5112
[3]; 3.2e-5 M
  COL3A1 mRNA expression (FC): 0.7866 and 0.7983 and 0.6723
